From PMC8298633, “Cannabis constituents interact at the drug efflux pump BCRP to markedly increase plasma cannabidiolic acid concentrations” (Scientific Reports, 2021)

Columns and labels:
BCRP [1] = molecular target: T1, BCRP (Homo sapiens, UniProt Q9UNQ0); test: Bidirectional transwell substrate assay, MDCK cells expressing BCRP (with or without elacridar); conditions: for P (A > B) / P (B > A) / r (transport efflux ratio): BCRP MDCK cells; for P (A > B): apical to basolateral; for P (B > A): basolateral to apical; for BCRP substrate status: human BCRP MDCK cells vs wildtype, with elacridar control
T1 sequence (Q9UNQ0 1-655): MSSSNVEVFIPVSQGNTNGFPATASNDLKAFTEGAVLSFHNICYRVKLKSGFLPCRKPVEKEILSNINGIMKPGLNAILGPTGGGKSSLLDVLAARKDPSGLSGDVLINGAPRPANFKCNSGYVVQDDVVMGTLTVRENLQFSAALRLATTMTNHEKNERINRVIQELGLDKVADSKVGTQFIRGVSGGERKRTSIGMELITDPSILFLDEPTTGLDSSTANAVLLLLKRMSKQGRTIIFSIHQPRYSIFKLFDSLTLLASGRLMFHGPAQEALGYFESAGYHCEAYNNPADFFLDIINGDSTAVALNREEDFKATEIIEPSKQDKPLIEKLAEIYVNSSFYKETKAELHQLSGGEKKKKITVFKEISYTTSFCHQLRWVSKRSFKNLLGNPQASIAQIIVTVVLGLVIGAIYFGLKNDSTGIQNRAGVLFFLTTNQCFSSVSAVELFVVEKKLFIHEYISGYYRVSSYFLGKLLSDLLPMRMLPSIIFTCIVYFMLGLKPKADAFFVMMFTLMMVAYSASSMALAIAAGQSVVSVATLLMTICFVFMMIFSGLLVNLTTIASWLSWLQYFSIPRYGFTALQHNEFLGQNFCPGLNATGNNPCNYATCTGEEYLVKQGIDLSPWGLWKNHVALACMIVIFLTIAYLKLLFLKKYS
Method: (§1) We first aimed to determine whether the cannabinoids found in the full-spectrum cannabis extract were substrates of P-glycoprotein and BCRP by using MDCK cells expressing human P-glycoprotein or BCRP in vitro. Transwell assays were conducted to assess bidirectional transport of the cannabinoids detected in plasma following administration of the full-spectrum cannabis extract (CBD, CBDA, CBDVA, CBGA, Δ^9-THC and Δ^9-THCA), including the respective neutral compounds (CBDV and CBG) across wildtype, BCRP and P-glycoprotein MDCK cell monolayers. […] BCRP and P-glycoprotein preferentially transport substrates in the B > A direction.
(§2) Media in the donor chamber was then replaced with that containing 10 µM of an individual cannabinoid in the presence of either vehicle or inhibitor and returned to 37 °C. Aliquots (25 or 50 µL) were removed from the accepter chamber at 60, 120, 180 and 240 min.
(§3) Cannabinoids were analyzed as described above.

P-glycoprotein = P-glycoprotein (Homo sapiens, UniProt P08183); test: Bidirectional transwell substrate assay, MDCK cells expressing P-glycoprotein; conditions: for P (A > B): apical to basolateral; for P (B > A): basolateral to apical; for P-glycoprotein substrate status: human P-glycoprotein MDCK cells vs wildtype
Sequence of P-glycoprotein (P08183 whole entry): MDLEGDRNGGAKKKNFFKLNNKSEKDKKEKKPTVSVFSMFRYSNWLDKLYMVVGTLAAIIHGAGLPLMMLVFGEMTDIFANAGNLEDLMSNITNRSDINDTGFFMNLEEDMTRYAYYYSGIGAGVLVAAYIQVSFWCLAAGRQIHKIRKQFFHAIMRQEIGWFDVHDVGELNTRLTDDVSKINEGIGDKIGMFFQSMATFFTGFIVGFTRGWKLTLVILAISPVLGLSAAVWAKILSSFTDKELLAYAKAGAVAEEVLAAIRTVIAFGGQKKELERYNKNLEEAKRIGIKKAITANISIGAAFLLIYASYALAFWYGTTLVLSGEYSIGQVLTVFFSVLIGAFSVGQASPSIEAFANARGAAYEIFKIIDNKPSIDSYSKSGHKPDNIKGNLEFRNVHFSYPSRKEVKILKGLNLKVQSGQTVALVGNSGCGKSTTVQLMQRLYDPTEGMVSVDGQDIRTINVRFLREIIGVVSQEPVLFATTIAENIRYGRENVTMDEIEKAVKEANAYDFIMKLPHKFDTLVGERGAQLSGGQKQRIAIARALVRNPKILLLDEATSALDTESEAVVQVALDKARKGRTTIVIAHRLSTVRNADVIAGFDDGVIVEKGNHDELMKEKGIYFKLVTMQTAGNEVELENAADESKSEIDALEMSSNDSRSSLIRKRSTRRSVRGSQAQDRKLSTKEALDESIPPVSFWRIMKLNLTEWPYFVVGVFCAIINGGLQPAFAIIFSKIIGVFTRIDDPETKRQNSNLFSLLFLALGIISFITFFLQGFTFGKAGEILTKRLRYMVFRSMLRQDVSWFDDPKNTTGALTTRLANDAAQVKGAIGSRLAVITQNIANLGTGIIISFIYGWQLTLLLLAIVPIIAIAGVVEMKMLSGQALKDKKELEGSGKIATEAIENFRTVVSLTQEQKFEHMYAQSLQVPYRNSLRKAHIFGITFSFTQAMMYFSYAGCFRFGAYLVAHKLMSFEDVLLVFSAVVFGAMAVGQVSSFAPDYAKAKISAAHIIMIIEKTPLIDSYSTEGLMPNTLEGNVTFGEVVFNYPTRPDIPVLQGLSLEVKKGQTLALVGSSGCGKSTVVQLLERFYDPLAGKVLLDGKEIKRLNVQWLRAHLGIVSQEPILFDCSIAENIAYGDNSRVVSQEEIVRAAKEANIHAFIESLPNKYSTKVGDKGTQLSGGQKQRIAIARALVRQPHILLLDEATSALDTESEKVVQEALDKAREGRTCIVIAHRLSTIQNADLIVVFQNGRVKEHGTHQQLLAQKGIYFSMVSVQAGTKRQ
Method: as §1, §2, §3

wildtype MDCK cells = test: Bidirectional transwell transport assay, wildtype MDCK cell monolayers; conditions: wildtype MDCK cells, 10 µM cannabinoid; for P (A > B): apical to basolateral; for P (B > A): basolateral to apical
Method: as §1, §2, §3

[2] = Pharmacokinetic study: plasma cannabinoids after single oral gavage of full-spectrum cannabis extract or individual cannabinoid; conditions: mouse plasma; for tmax / AUC / t1/2 / Cmax / Total plasma exposure in full-spectrum extract relative to individual compound, fold lower: oral; for Total plasma exposure in full-spectrum extract relative to individual compound, fold lower: equivalent doses; for Detection in plasma following oral administration of the full-spectrum extract: single oral dose of extract
Method: Drugs were administered by oral gavage in a volume of 5 mL/kg. Wildtype male and female mice (postnatal day 21–28, P21-28) received a single oral gavage of either the full-spectrum cannabis extract or an individual cannabinoid. Cannabinoid doses within the full-spectrum extract or as an individual cannabinoid were as follows in mg/kg: CBDA and Δ^9-THCA, 50; CBD, 25; Δ^9-THC, 15; CBC, 9; CBDVA and CBGA, 7; CBN, 2.5; CBG, 1.5; CBDV and Δ^9-THCV, < 1 (Fig. 1a). At selected time points (15–240 min), mice were anesthetized with isoflurane and whole blood was collected by cardiac puncture. Plasma was isolated by centrifugation (9000 g for 10 min, 4 °C) and stored at − 80 °C until assayed.
Concentrations of cannabinoids in plasma samples were quantified as described previously, [24], [58]. […] The organic layer was isolated by centrifugation (4000 g for 10 min) and evaporated to dryness with N2. Samples were reconstituted in acetonitrile and 0.1% formic acid in water (1:3.3, v/v) for supported-liquid extraction (SLE) with methyl tert-butyl ether (MTBE) using Biotage Isolute SLE+ columns (Uppsala, SWE). […] Quantification of cannabinoids was achieved by comparing samples to standards prepared with known amounts of drug.
Plasma concentrations at each time point were averaged and pharmacokinetic parameters were calculated by noncompartmental analysis. Elimination rate constants were determined by linear regression of the terminal component of the concentration–time curve using GraphPad Prism 8.2 (La Jolla, USA). The log-linear trapezoidal method was used to calculated total drug exposure (area under concentration–time curve) using equations described previously.

BCRP [3] = molecular target: T1, BCRP; test: Inhibition of BCRP-mediated transport of prazosin (transwell, BCRP MDCK cells); conditions: for P (A > B) of prazosin in the presence of inhibitor / P (B > A) of prazosin in the presence of inhibitor: 10 µM inhibitor, 1 µM prazosin
BCRP [4] = molecular target: T1, BCRP; test: Inhibition of BCRP-mediated transport of CBDA by cannabinoids (transwell, BCRP MDCK cells); conditions: BCRP MDCK cells; for P (A > B) of CBDA in the presence of inhibitor / P (B > A) of CBDA in the presence of inhibitor: cannabinoids tested at 10 µM
Method: Cannabinoids were tested at 10 µM. […] Data are expressed as means ± SEM, with n = 4 per time point. […] Schematic created using BioRender.com.
as §3

[5] = 10 µM cannabinoid, substrate threshold 1.5
[6] = P-glycoprotein MDCK cells, 10 µM cannabinoid
[7] = administered as individual cannabinoid, doses mg/kg: CBD 25, CBDA 50, CBDVA 7, CBGA 7, THC 15, THCA 50
[8] = administered as individual cannabinoid, doses mg/kg: CBD 25, CBDA 50, CBDVA 7, THC 15, THCA 50
[9] = administered in full-spectrum extract, doses mg/kg: CBD 25, CBDA 50, CBDVA 7, CBGA 7, THC 15, THCA 50

| Compound | P (A > B) (BCRP [1]; 10 µM cannabinoid) | P (B > A) (BCRP [1]; 10 µM cannabinoid) | r (transport efflux ratio) (BCRP [1]; [5]) | BCRP substrate status (BCRP [1]) | P (A > B) (P-glycoprotein; [6]) | P (B > A) (P-glycoprotein; [6]) | P-glycoprotein substrate status (P-glycoprotein) | r (transport efflux ratio) (wildtype MDCK cells) | P (A > B) (wildtype MDCK cells) | P (B > A) (wildtype MDCK cells) | tmax [2, 7] [h] | AUC [2, 8] [µg·min/mL] | t1/2 [2, 8] [h] | AUC [2, 9] [µg·min/mL] | t1/2 [2, 9] [h] | tmax [2, 9] [h] | Total plasma exposure in full-spectrum extract relative to individual compound, fold lower [2] | Detection in plasma following oral administration of the full-spectrum extract [2] | P (A > B) of prazosin in the presence of inhibitor (BCRP [3]) | P (B > A) of prazosin in the presence of inhibitor (BCRP [3]) | other results |
| --- | --- | --- | --- | --- | --- | --- | --- | --- | --- | --- | --- | --- | --- | --- | --- | --- | --- | --- | --- | --- | --- |
| C=C(C)[C@@H]1CCC(C)=C[C@H]1c1c(O)cc(CCC)c(C(=O)O)c1O [CBDVA, cannabidivarinic acid] | 24 ± 9 × 10^−5 cm/s | 47 ± 6 × 10^−5 cm/s | 2.0 ± 0.4 | BCRP substrates | 14 ± 4 × 10^−5 cm/s | 22 ± 2 × 10^−5 cm/s | not P-glycoprotein substrates | 1.1 ± 0.2 | 22 ± 3 × 10^−5 cm/s | 25 ± 2 × 10^−5 cm/s | 0.25 | 7459 | 2.5 | 3844 | 2 | 1 | 2–4 × | detected | 15 ± 3 × 10^−2 cm/s | 201 ± 4 × 10^−2 cm/s | r (transport efflux ratio) (P-glycoprotein; P-glycoprotein MDCK cells, 10 µM cannabinoid, substrate threshold 2.5): 1.6 ± 0.3; Cmax ([2]; administered as individual cannabinoid, doses mg/kg: CBDA 50, CBDVA 7, CBGA 7): 26000 ± 2000 ng/mL; Cmax ([2]; administered in full-spectrum extract, doses mg/kg: CBDA 50, CBDVA 7, CBGA 7): 11000 ± 1000 ng/mL; Effect on BCRP-mediated transport of CBDA (BCRP [4]; 10 µM, compared to vehicle): Neither CBD nor CBDVA affected CBDA transport via BCRP; P (A > B) of CBDA in the presence of inhibitor (BCRP [4]): 8 ± 1 × 10^−5 cm/s; P (B > A) of CBDA in the presence of inhibitor (BCRP [4]): 63 ± 4 × 10^−5 cm/s |
| CCCCCc1cc(O)c2c(c1)OC(C)(C)[C@@H]1CCC(C)=C[C@@H]21 [Δ^9-THC, Δ^9-tetrahydrocannabinol, reference compound] | 54 ± 17 × 10^−5 cm/s | 74 ± 28 × 10^−5 cm/s | 1.4 ± 0.5 | weak substrates of BCRP | 9 ± 3 × 10^−5 cm/s | 4 ± 1 × 10^−5 cm/s | not P-glycoprotein substrates | 0.3 ± 0.3 | 9 ± 3 × 10^−5 cm/s | 3 ± 1 × 10^−5 cm/s | 1.5 | 116 | 3.5 | 62 | 5.5 | ≤ 1 | 2–4 × | detected | 18 ± 2 × 10^−2 cm/s | 201 ± 8 × 10^−2 cm/s | r (transport efflux ratio) (BCRP [1]; 10 µM cannabinoid in the presence of 10 µM elacridar): 0.7 ± 0.2; Cmax ([2]; administered as individual cannabinoid, doses mg/kg: CBD 25, THC 15, THCA 50): 341 ± 40 ng/mL; tmax ([2]; administered in full-spectrum extract, doses mg/kg: CBD 25, CBDA 50, CBDVA 7, CBGA 7, THC 15, THCA 50, listed as THC): 1 h; Cmax ([2]; administered in full-spectrum extract, doses mg/kg: CBD 25, THC 15, THCA 50): 127 ± 15 ng/mL; Effect on BCRP-mediated transport of prazosin (BCRP [3]; 10 µM, compared to vehicle): not prazosin transport; P (A > B) of CBDA in the presence of inhibitor (BCRP [4]): 21 ± 3 × 10^−5 cm/s; P (B > A) of CBDA in the presence of inhibitor (BCRP [4]): 47 ± 4 × 10^−5 cm/s |
